According to US8247409B2, “Thieno-[2,3-d]pyrimidine and thieno-pyridazine compounds and methods of use” (Amgen Inc., priority 2006, dated 2012):

Tested on: LPS induced TNF release from monocytes
Test: Lipopolysaccharide-activated Monocyte TNF Production Assay
Format: cell-based
Details: Homo sapiens, monocytes activated with LPS, TNF in supernatant by ELISA
Method: Lipopolysaccharide-activated Monocyte TNF Production Assay
Test compounds were evaluated in vitro for the ability to inhibit the production of TNF by monocytes activated with bacterial lipopolysaccharide (LPS). Fresh residual source leukocytes (a byproduct of plateletpheresis) were obtained from a local blood bank, and peripheral blood mononuclear cells (PBMCs) were isolated by density gradient centrifugation on Ficol-Paque Plus (Pharmacia). PBMCs were suspended at 2×10^6/mL in DMEM supplemented to contain 2% FCS, 10 mM, 0.3 mg/mL […], 100 U/mL penicillin G and […] streptomycin sulfate (complete media). Cells were plated into Falcon flat bottom, 96 well culture plates (200 μL/well) and cultured overnight at 37° C. and 6% CO2. Non-adherent cells were removed by washing with 200 μL/well of fresh medium. Wells containing adherent cells (˜70% monocytes) were replenished with 100 μL of fresh medium.
Preparation of Test Compound Stock Solutions
Test compounds were dissolved in […]. Compound stock solutions were prepared to an initial concentration of […]. Stocks were diluted initially to 20-200 μM in complete media. Nine two-fold serial dilutions of each compound were then prepared in complete medium.
Treatment of Cells with Test Compounds and Activation of TNF Production with Lipopolysaccharide
One hundred microliters of each test compound dilution were added to microtiter wells containing adherent monocytes and 100 μL complete medium. Monocytes were cultured with test compounds for 60 min at which time 25 μL of complete medium containing 30 ng/mL lipopolysaccharide from E. coli K532 were added to each well. Cells were cultured an additional 4 hrs. Culture supernatants were then removed and TNF presence in the supernatants was quantified using an ELISA.
Flat bottom, 96 well Corning High Binding ELISA plates were coated overnight (4° C.) with 150 μL/well of 3 μg/mL murine anti-human TNF-α MAb (R&D Systems #MAB210). Wells were then blocked for 1 h at room temperature with 200 μL/well of CaCl2-free ELISA buffer supplemented to contain 20 mg/mL BSA (standard ELISA buffer: […], 150 mM NaCl, 2 mM CaCl2, 0.15 mM thimerosal, pH 7.4). Plates were washed and replenished with 100 μL of test supernatants (diluted 1:3) or standards. Standards consisted of eleven 1.5-fold serial dilutions from a stock of 1 ng/mL recombinant human TNF (R&D Systems). Plates were incubated at room temperature for 1 hr on orbital shaker (300 rpm); washed and replenished with 100 μL/well of 0.5 μg/mL goat anti-human TNF-α (R&D systems #AB-210-NA) biotinylated at a 4:1 ratio. Plates were incubated for 40 min, washed and replenished with 100 μL/well of alkaline phosphatase-conjugated streptavidin (Jackson ImmunoResearch #016-050-084) at 0.02 μg/mL. Plates were incubated 30 min, washed and replenished with 200 μL/well of 1 mg/mL of p-nitrophenyl phosphate. After 30 min, plates were read at 405 nm on a Vmax plate reader.
Standard curve data were fit to a second order polynomial and unknown TNF-α concentrations determined from their OD by solving this equation for concentration. TNF concentrations were then plotted vs. test compound concentration using a second order polynomial. This equation was then used to calculate the concentration of test compounds causing a 50% reduction in TNF production.

Row | IC50 | SMILES
1 | ≤ 5 µM | Cc1ccc(C(=O)NC2CC2)cc1-c1cc2cnc(CCN3CCOCC3)nc2s1 [Example 1, N-Cyclopropyl-4-methyl-3-(2-(2-morpholinoethyl)thieno[2,3-d]pyrimidin-6-yl)benzamide]
2 | ≤ 5 µM | COc1c(F)cccc1-c1nncc2cc(-c3cc(C(=O)NC4CC4)ccc3C)sc12 [Example 3, N-cyclopropyl-3-(7-(3-fluoro-2-methoxyphenyl)thieno[2,3-d]pyridazin-2-yl)-4-methylbenzamide]
3 | ≤ 5 µM | Cc1ccc(C(=O)NC2CC2)cc1-c1cc2cnnc(N3CCNC(=O)C3)c2s1 [Example 6, N-cyclopropyl-4-methyl-3-(7-(3-oxopiperazin-1-yl)thieno[2,3-d]pyridazin-2-yl)benzamide]
4 | ≤ 5 µM | CCN(CC)CCCNc1ncc2cc(-c3cc(C(=O)NC4CC4)ccc3C)sc2n1 [Example 7, N-cyclopropyl-3-(2-((3-(diethylamino)propyl)amino)thieno[2,3-d]pyrimidin-6-yl)-4-methylbenzamide]
5 | ≤ 5 µM | CCNC(=O)c1ccc(C)c(-c2cc3cnc(NCCN4CCOCC4)nc3s2)c1 [Example 9, N-ethyl-4-methyl-3-(2-((2-(4-morpholinyl)ethyl)amino)thieno[2,3-d]pyrimidin-6-yl)benzamide]
6 | ≤ 5 µM | Cc1ccc(C(=O)O)cc1-c1cc2cnc(NCCN3CCOCC3)nc2s1 [Example 10, 4-methyl-3-(2-((2-(4-morpholinyl)ethyl)amino)thieno[2,3-d]pyrimidin-6-yl)benzoic acid]
7 | ≤ 5 µM | Cc1ccc(C(=O)NC2CC2)cc1-c1cc2cnc(NCC3CCCN(C(=O)OC(C)(C)C)C3)nc2s1 (centres unmarked) [Example 14, 1,1-dimethylethyl 3-(((6-(5-((cyclopropylamino)carbonyl)-2-methylphenyl)thieno[2,3-d]pyrimidin-2-yl)amino)methyl)-1-piperidinecarboxylate]
8 | ≤ 5 µM | Cc1ccc(C(=O)NC2CC2)cc1-c1cc2cnnc(Cl)c2s1 [Example 21, 3-(7-chlorothieno[2,3-d]pyridazin-2-yl)-N-cyclopropyl-4-methylbenzamide]
9 | ≤ 5 µM | Cc1ccc(C(=O)NC2CC2)cc1-c1cc2cnnc(-c3ccc(F)cc3C)c2s1 [Example 22, N-cyclopropyl-3-(7-(4-fluoro-2-methylphenyl)thieno[2,3-d]pyridazin-2-yl)-4-methylbenzamide]
10 | ≤ 5 µM | COc1ncccc1-c1nncc2cc(-c3cc(C(=O)NC4CC4)ccc3C)sc12 [Example 23, N-cyclopropyl-4-methyl-3-(7-(2-(methyloxy)-3-pyridinyl)thieno[2,3-d]pyridazin-2-yl)benzamide]
11 | ≤ 5 µM | Cc1ccc(C(N)=O)cc1-c1cc2cnnc(-c3ccc(F)cc3C)c2s1 [Example 27, 3-(7-(4-fluoro-2-methylphenyl)thieno[2,3-d]pyridazin-2-yl)-4-methylbenzamide]
